Laboratory results published in patent US5466689A, “Morpholine derivatives and their use” (Takeda Chemical Industries, Ltd., priority 1993, dated 1995).

Assays:
Substance-P = test: Action of Substance-P for inhibiting biting response by its administration at subarachnoid space; assay type: in vivo, Jcl:ICR mice; conditions: mice; dosage 10 μg/mouse; SP 10 ng/5 μl/mouse at subarachnoid space; bitings counted for one minute
Method: Action of Substance-P for inhibiting biting response by its administration at subarachnoid space
Five-week old male Jcl:ICR mice (10 animals per group) were employed. Dorsal cutaneous incisions were made under anesthesia at least one hour before the experiments. Substance-P (SP) was administered in an amount of 10 ng/5 μl/mouse at the subarachnoid space of the spinal cord. Then the test animals started to bite themselves at the abdomen alternately. The number of bitings was counted for one minute immediately after the SP administration. The values thus obtained were made indexes of pseudo pain reflexes caused by SP.
Test drugs were dissolved in a solution (Tween 80:ethanol:physiological saline=20:10:70) together with a given amount of SP. The solutions thus prepared were administered to test animals. In the case of oral administration, 5% suspension of gum arabica was employed, which was administered at 30 minutes before the SP administration.
The inhibition rate (%) of each sample was calculated by the following formula. Inhibition rate (%)=(number of counts in the control group-numberof counts in each sample)/(number of counts in the control group)×100.
And, 50% inhibition dose (ID50) was calculated from the primary linear regression line of dose-dependent curve.

Writhing = test: Acetic acid-writhing method; assay type: in vivo, Slc:ICR mice; conditions: mice, 0.6% acetic acid i.p. 30 min later, writhing during 20 minutes
Method: Acetic acid-writhing method
Male Slc:ICR mice of four-week old (10 animals per group) were employed. Test compounds were orally administered. Thirty minutes later, purified water containing 0.6% acetic acid was injected intraperitoneally (0.1 ml/10 g body weight). Writhing shown by the test animals during 20 minutes was observed on individual animals.
On each test animal, the inhibition rate against the average response times in the control group was calculated. The test compound was administered as a 5% suspension of gum arabica.

[1] = acute toxicity (LD50), oral, rats; conditions: rat, in vivo, orally administered to rats
Description: Therefore, the compounds of this invention and their salts can be used for prophylaxis or therapy of diseases including pain due to bone diseases (arthritis, rheumatic fever, osteoporosis), pain induced by cancer or the like, lumbago, postoperative pain, neuralgia, pain induced by inflammatory diseases, pain caused by tooth extraction, tooth-ache and pain due to burn trauma, as well as neurosis (e.g. anxiety neurosis, depression, mental disorder), somnipathy or the like. Since the compounds of this invention act on a neurotransmitting system such as dopamine or norepinephrine, they can be used also as prophylactic and therapeutic drugs for circulatory diseases (e.g. hypertension).

Compound | Inhibition rate (%), antagonistic action to Substance-P (biting response) (Substance-P) [%] | Inhibition rate (%), analgesic action (writhing) (Writhing; 25 mg/kg,p.o.) [%] | LD50 [1] [mg/kg] | Inhibition rate (%), analgesic action (writhing) (Writhing; 12.5 mg/kg,p.o.) [%]
C=C[C@]12OCCN(CC)[C@@H]1Cc1c[nH]c3cccc2c13 (relative stereo) [Example 1, Trans-4,6,6a,8,9,10a-hexahydro-7-ethyl-10a-vinyl-7H-indolo[3,4-gh][1.4]benzoxazine] | 80 |  |  | 
CCN1CCO[C@]2(C)c3c(OC)ccc4[nH]cc(c34)C[C@@H]12 (relative stereo) [Example 2, Trans-4,6,6a,8,9,10a-hexahydro-7-ethyl-1-methoxy-10a-methyl-7H-indole[3,4-gh][1.4]benzoxazine] | 100 | 99 | ≥ 100 | 
CCN1CCO[C@]2(C)c3cccc4[nH]cc(c34)C[C@@H]12 (relative stereo) [Example 8, Trans-4,6,6a,8,9,10a-hexahydro-7-ethyl-10a-methyl-7H-indolo[3,4-gh][1,4]benzoxazine] | 65 |  |  | 61
